Test results as given in US11267811B2, “Small molecule inhibitors of galectin-3” (BRISTOL-MYERS SQUIBB COMPANY, priority 2017, dated 2022).

target: His-tagged recombinant human Gal-3 (hGal-3) (Homo sapiens (Human), UniProt P17931); assay: Gal-3 HTRF assay (His-tagged hGal-3 binding to B-ASF); conditions: HTRF, hGal-3 15 nM, B-ASF 15 nM; read-out: hGal-3 IC50;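 also: compounds preincubated 30 min with hGal-3, then 1 h with B-ASF, detection via terbium anti-His antibody and streptavidin d2. Control with B-ASF counts as full signal, omitting B-ASF as background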
Sequence (P17931 whole entry): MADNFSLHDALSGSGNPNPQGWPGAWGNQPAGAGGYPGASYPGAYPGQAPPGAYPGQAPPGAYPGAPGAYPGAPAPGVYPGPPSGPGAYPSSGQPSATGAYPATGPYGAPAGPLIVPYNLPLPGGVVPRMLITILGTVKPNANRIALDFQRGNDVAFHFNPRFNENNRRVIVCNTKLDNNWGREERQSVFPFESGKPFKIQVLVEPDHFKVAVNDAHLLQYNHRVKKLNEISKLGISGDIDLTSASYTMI

| IC50 | Compound |
| --- | --- |
| 460 nM | OC[C@H]1O[C@@H](c2ncnn2-c2ccncc2)[C@H](O)[C@@H](n2cc(-c3cc(F)c(F)c(F)c3)nn2)[C@H]1O [Example 42] |
| 610 nM | OC[C@H]1O[C@@H](c2ncnn2-c2ccc(Cl)cc2)[C@H](O)[C@@H](n2cc(-c3cc(F)c(F)c(F)c3)nn2)[C@H]1O [Example 43] |
| 4460 nM | Cn1ncnc1[C@@H]1O[C@H](CO)[C@H](O)[C@H](n2cc(-c3cc(F)c(F)c(F)c3)nn2)[C@H]1O [Example 44] |
| 60 nM | Cc1nc2ccc(-n3ncnc3[C@@H]3O[C@H](CO)[C@H](O)[C@H](n4cc(-c5cc(F)c(F)c(F)c5)nn4)[C@H]3O)cc2s1 [Example 45] |
| 40 nM | OC[C@H]1O[C@@H](c2ncnn2-c2ccc3ncsc3c2)[C@H](O)[C@@H](n2cc(-c3cc(F)c(F)c(F)c3)nn2)[C@H]1O [Example 46] |
| 80 nM | OC[C@H]1O[C@@H](c2ncnn2-c2cc(Cl)ccc2Cl)[C@H](O)[C@@H](n2cc(-c3cc(F)c(F)c(F)c3)nn2)[C@H]1O [Example 47] |
| 110 nM | Cn1cnc2ccc(-n3ncnc3[C@@H]3O[C@H](CO)[C@H](O)[C@H](n4cc(-c5cc(F)c(F)c(F)c5)nn4)[C@H]3O)cc21 [Example 48] |
| 50 nM | Cc1nc2cc(C)c(-n3ncnc3[C@@H]3O[C@H](CO)[C@H](O)[C@H](n4cc(-c5cc(F)c(F)c(F)c5)nn4)[C@H]3O)cc2s1 [Example 49] |
| 120 nM | OC[C@H]1O[C@@H](c2ncnn2-c2ccc3nc(N4CCOCC4)sc3c2)[C@H](O)[C@@H](n2cc(-c3cc(F)c(F)c(F)c3)nn2)[C@H]1O [Example 50] |
| 70 nM | Cc1nc2cc(Cl)c(-n3ncnc3[C@@H]3O[C@H](CO)[C@H](O)[C@H](n4cc(-c5cc(F)c(F)c(F)c5)nn4)[C@H]3O)cc2s1 [Example 51] |
| 300 nM | Cc1ncc(-c2cccc(-n3ncnc3[C@@H]3O[C@H](CO)[C@H](O)[C@H](n4cc(-c5cc(F)c(F)c(F)c5)nn4)[C@H]3O)c2)s1 [Example 52] |
| 23 nM | O=C(O)CO[C@@H]1[C@@H](n2cc(-c3cc(F)c(F)c(F)c3)nn2)[C@@H](O)[C@@H](CO)O[C@H]1c1ncnn1-c1cccc(Cl)c1 [Example 53, 2-(((2S,3R,4S,5R,6R)-2-(1-(3-chlorophenyl)-1H-1,2,4-triazol-5-yl)-5-hydroxy-6-(hydroxymethyl)-4-(4-(3,4,5-trifluorophenyl)-1H-1,2,3-triazol-1-yl)tetrahydro-2H-pyran-3-yl)oxy)acetic acid] |
| 83 nM | CO[C@@H]1[C@@H](n2cc(-c3cc(F)c(F)c(F)c3)nn2)[C@@H](O)[C@@H](CO)O[C@H]1c1ncnn1-c1cccc(Cl)c1 [Example 54] |
| 157 nM | CCO[C@@H]1[C@@H](n2cc(-c3cc(F)c(F)c(F)c3)nn2)[C@@H](O)[C@@H](CO)O[C@H]1c1ncnn1-c1cccc(Cl)c1 [Example 55] |
| 50 nM | Cc1nc([C@@H]2O[C@H](CO)[C@H](O)[C@H](n3cc(-c4cc(F)c(F)c(F)c4)nn3)[C@H]2O)n(-c2ccc3nc(C)sc3c2)n1 [Example 57, (2R,3R,4R,5R,6S)-2-(hydroxymethyl)-6-(3-methyl-1-(2-methylbenzo[d]thiazol-6-yl)-1H-1,2,4-triazol-5-yl)-4-(4-(3,4,5-trifluorophenyl)-1H-1,2,3-triazol-1-yl)tetrahydro-2H-pyran-3,5-diol] |
| 140 nM | Cc1nc([C@@H]2O[C@H](CO)[C@H](O)[C@H](n3cc(-c4cc(F)c(F)c(F)c4)nn3)[C@H]2O)n(-c2ccc3ncn(C)c3c2)n1 [Example 59] |
| 850 nM | Cc1nc([C@@H]2O[C@H](CO)[C@H](O)[C@H](n3cc(-c4cc(F)c(F)c(F)c4)nn3)[C@H]2O)n(-c2ccc(Cl)cc2C)n1 [Example 63] |
| 90 nM | Cc1nc([C@@H]2O[C@H](CO)[C@H](O)[C@H](n3cc(-c4cc(F)c(F)c(F)c4)nn3)[C@H]2O)n(-c2cc(Cl)ccc2C#N)n1 [Example 64] |
| 220 nM | Cc1nc([C@@H]2O[C@H](CO)[C@H](O)[C@H](n3cc(-c4cc(F)c(F)c(F)c4)nn3)[C@H]2O)n(-c2cncc(Cl)c2)n1 [Example 65] |
| 3840 nM | Cc1nc([C@@H]2O[C@H](CO)[C@H](O)[C@H](n3cc(-c4cc(F)c(F)c(F)c4)nn3)[C@H]2O)n(-c2nc3ccnn3cc2F)n1 [Example 66] |
| 130 nM | Cc1nc([C@@H]2O[C@H](CO)[C@H](O)[C@H](n3cc(-c4cc(F)c(F)c(F)c4)nn3)[C@H]2O)n(-c2cc(Cl)cc(C(F)(F)F)c2)n1 [Example 67] |
| 60 nM | Cc1nc([C@@H]2O[C@H](CO)[C@H](O)[C@H](n3cc(-c4cc(F)c(F)c(F)c4)nn3)[C@H]2O)n(-c2cc(Cl)c(Cl)cc2C)n1 [Example 69] |
| 50 nM | Cc1nc([C@@H]2O[C@H](CO)[C@H](O)[C@H](n3cc(-c4cc(F)c(F)c(F)c4)nn3)[C@H]2O)n(-c2cc(C(F)(F)F)ccc2Cl)n1 [Example 70] |
| 90 nM | Cc1nc([C@@H]2O[C@H](CO)[C@H](O)[C@H](n3cc(-c4cc(F)c(F)c(F)c4)nn3)[C@H]2O)n(-c2cc(F)ccc2C(F)(F)F)n1 [Example 71] |
| 20 nM | CCc1ccc(Cl)cc1-n1nc(C)nc1[C@@H]1O[C@H](CO)[C@H](O)[C@H](n2cc(-c3cc(F)c(F)c(F)c3)nn2)[C@H]1O [Example 72] |
| 210 nM | OC[C@H]1O[C@@H](c2nncn2-c2ccccc2)[C@H](O)[C@@H](n2cc(-c3cc(F)c(F)c(F)c3)nn2)[C@H]1O [Example 73, (2R,3R,4R,5R,6S)-2-(hydroxymethyl)-6-(4-phenyl-4H-1,2,4-triazol-3-yl)-4-(4-(3,4,5-trifluorophenyl)-1H-1,2,3-triazol-1-yl)tetrahydro-2H-pyran-3,5-diol] |

| IC50 | Compound |
| --- | --- |
| 110 nM | COc1ccc(Cl)cc1-n1cnnc1[C@@H]1O[C@H](CO)[C@H](O)[C@H](n2cc(-c3cc(F)c(F)c(F)c3)nn2)[C@H]1O [Example 74] |
| 330 nM | OC[C@H]1O[C@@H](c2nncn2-c2ccc(Cl)cc2)[C@H](O)[C@@H](n2cc(-c3cc(F)c(F)c(F)c3)nn2)[C@H]1O [Example 75] |
| 120 nM | OC[C@H]1O[C@@H](c2nncn2-c2ccc3c(c2)OCO3)[C@H](O)[C@@H](n2cc(-c3cc(F)c(F)c(F)c3)nn2)[C@H]1O [Example 76] |
| 140 nM | Cc1ccc(-n2cnnc2[C@@H]2O[C@H](CO)[C@H](O)[C@H](n3cc(-c4cc(F)c(F)c(F)c4)nn3)[C@H]2O)cc1C [Example 77] |
| 830 nM | OC[C@H]1O[C@@H](c2nncn2-c2cccc(Oc3ccccc3)c2)[C@H](O)[C@@H](n2cc(-c3cc(F)c(F)c(F)c3)nn2)[C@H]1O [Example 78] |
| 170 nM | COc1ccc(-n2cnnc2[C@@H]2O[C@H](CO)[C@H](O)[C@H](n3cc(-c4cc(F)c(F)c(F)c4)nn3)[C@H]2O)cc1OC [Example 79] |
| 330 nM | OC[C@H]1O[C@@H](c2nncn2-c2cccc(C(F)(F)F)c2)[C@H](O)[C@@H](n2cc(-c3cc(F)c(F)c(F)c3)nn2)[C@H]1O [Example 80] |
| 580 nM | OC[C@H]1O[C@@H](c2nncn2-c2ccc(-c3cnco3)cc2)[C@H](O)[C@@H](n2cc(-c3cc(F)c(F)c(F)c3)nn2)[C@H]1O [Example 82] |
| 900 nM | OC[C@H]1O[C@@H](c2nncn2-c2ccc(Cl)cc2Cl)[C@H](O)[C@@H](n2cc(-c3cc(F)c(F)c(F)c3)nn2)[C@H]1O [Example 83] |
| 900 nM | CC(=O)Nc1cccc(-n2cnnc2[C@@H]2O[C@H](CO)[C@H](O)[C@H](n3cc(-c4cc(F)c(F)c(F)c4)nn3)[C@H]2O)c1 [Example 84] |
| 440 nM | OC[C@H]1O[C@@H](c2nncn2-c2ccc(F)cc2)[C@H](O)[C@@H](n2cc(-c3cc(F)c(F)c(F)c3)nn2)[C@H]1O [Example 85] |
| 380 nM | COc1ccccc1-n1cnnc1[C@@H]1O[C@H](CO)[C@H](O)[C@H](n2cc(-c3cc(F)c(F)c(F)c3)nn2)[C@H]1O [Example 86] |
| 100 nM | OC[C@H]1O[C@@H](c2nncn2-c2ccc(Cl)c(C(F)(F)F)c2)[C@H](O)[C@@H](n2cc(-c3cc(F)c(F)c(F)c3)nn2)[C@H]1O [Example 87] |
| 360 nM | OC[C@H]1O[C@@H](c2nncn2-c2ccc(Br)cc2)[C@H](O)[C@@H](n2cc(-c3cc(F)c(F)c(F)c3)nn2)[C@H]1O [Example 88] |
| 460 nM | OC[C@H]1O[C@@H](c2nncn2-c2ccccc2Cl)[C@H](O)[C@@H](n2cc(-c3cc(F)c(F)c(F)c3)nn2)[C@H]1O [Example 89] |
| 520 nM | OC[C@H]1O[C@@H](c2nncn2-c2ccc(Cc3ccncc3)cc2)[C@H](O)[C@@H](n2cc(-c3cc(F)c(F)c(F)c3)nn2)[C@H]1O [Example 90] |
| 690 nM | CN(C)c1ccc(-n2cnnc2[C@@H]2O[C@H](CO)[C@H](O)[C@H](n3cc(-c4cc(F)c(F)c(F)c4)nn3)[C@H]2O)cc1 [Example 91] |
| 190 nM | OC[C@H]1O[C@@H](c2nncn2-c2cccc(OC(F)(F)F)c2)[C@H](O)[C@@H](n2cc(-c3cc(F)c(F)c(F)c3)nn2)[C@H]1O [Example 93] |
| 1130 nM | OC[C@H]1O[C@@H](c2nncn2-c2ccc(OC(F)(F)F)cc2)[C@H](O)[C@@H](n2cc(-c3cc(F)c(F)c(F)c3)nn2)[C@H]1O [Example 94] |
| 130 nM | OC[C@H]1O[C@@H](c2nncn2-c2ccc3ccccc3c2)[C@H](O)[C@@H](n2cc(-c3cc(F)c(F)c(F)c3)nn2)[C@H]1O [Example 95] |
| 290 nM | OC[C@H]1O[C@@H](c2nncn2-c2ccc3c(c2)OCCO3)[C@H](O)[C@@H](n2cc(-c3cc(F)c(F)c(F)c3)nn2)[C@H]1O [Example 96] |
| 350 nM | OC[C@H]1O[C@@H](c2nncn2-c2ccccc2F)[C@H](O)[C@@H](n2cc(-c3cc(F)c(F)c(F)c3)nn2)[C@H]1O [Example 97] |
| 450 nM | COc1ccc(-n2cnnc2[C@@H]2O[C@H](CO)[C@H](O)[C@H](n3cc(-c4cc(F)c(F)c(F)c4)nn3)[C@H]2O)cc1 [Example 98] |
| 890 nM | O=S1(=O)Cc2ccc(-n3cnnc3[C@@H]3O[C@H](CO)[C@H](O)[C@H](n4cc(-c5cc(F)c(F)c(F)c5)nn4)[C@H]3O)cc2C1 [Example 99] |
| 470 nM | OC[C@H]1O[C@@H](c2nncn2-c2cccc(-c3ccccc3)c2)[C@H](O)[C@@H](n2cc(-c3cc(F)c(F)c(F)c3)nn2)[C@H]1O [Example 100] |
| 80 nM | OC[C@H]1O[C@@H](c2nncn2-c2cc(Cl)cc(Cl)c2)[C@H](O)[C@@H](n2cc(-c3cc(F)c(F)c(F)c3)nn2)[C@H]1O [Example 101] |
